Results from patent publication US9622495B2, “Methods to decontaminate cereal grains with chlorine dioxide” (Diversey, Inc., priority 2011, dated 2017).
Where “and” joins values, the source holds several entries; their conditions need not be identical. Equal values may be shown once.

Key:
[1] = system: Fusarium; test: Treatment of barley artificially contaminated with Fusarium with chlorine dioxide solutions (test tube, plate count); type: cell-based
Protocol: The performance of chlorine dioxide was investigated to reduce initial Fusarium load on barley. Prior to treatment with chlorine dioxide, barley samples were artificially contaminated with cells of Fusarium by spraying and drying.
Methods. Chlorine dioxide solutions were generated using Diversey's ClearKlens Bi-Spore Set (Base VH26 and Activator VH 26). Fresh stock solutions were prepared following product use instructions. Concentrations of chlorine dioxide in stock and use solutions were determined with a Dr. Lange test-kit (LCK 310/343) and photometric DR 2800 device. Chlorine dioxide use solutions were prepared diluting the Bi-Spore stock solution with aid of CEN hard water diluent (300 mg/kg CaCO3). The neutralizing solution was based on sodium thiosulfate (5 g/L in ¼ strength Ringer solution). Experiments were carried out at ambient temperature and no soil on the basis of EN 1276. Chlorine dioxide use solutions for testing were determined to be 1 ppm and 10 ppm.
Test runs were conducted as follows. In a test tube, chlorine dioxide solution (10 ml) was added to barley (1 g) and the start time of the experiment was recorded. Barley and chlorine dioxide were mixed by vortexing for 10 seconds and then allowed to react for one hour. After treating the barley with chlorine dioxide solution for one hour, the solution was decanted. Shortly thereafter, a subsequent treatment for either 60 or 300 min with a fresh solution containing either 1 ppm ClO2 or 10 ppm ClO2 was performed. After completion of the second treatment, a portion of the mixture (1 mL) was pipetted into 9 ml of neutralizer and mixed. After 5 minutes reaction time, 1 mL of the neutralized solution was added to 9 mL Ringer diluent. A dilution series was prepared up to 1:10,000. From each dilution step, 1 mL (in duplicate) was plated on potato dextrose agar. Plates were incubated at 30° C. for 62 hours. Grown colonies on plates were counted and expressed at CFU per gram barley. A control experiment using Ringer solution instead of chlorine dioxide was performed following the same procedure.

[2] = system: Fusarium; test: Fusarium counts on barley, chlorine dioxide in second steeping, pilot steeping chamber (Example 2); type: cell-based
Protocol: (§1) Test protocol. Harvested barley from a high load Fusarium batch was provided by Czech Malt and Brew Institute. A starting probe (parallel) was taken to determine initial cell load on barley with Fusarium. Barley (1 g) was whirled in Ringer-solution (10 ml) to detach cells. After thorough whirling ten-fold dilutions steps in sterile Ringer-solution were prepared. 1 ml sample in parallel from dilution steps 10^−4, 10^−5 and 10^−6 were poured with sterile potato agar medium. Chlorine dioxide treated barley was prior to dilution series once washed with Ringer-solution to remove residual Chlorine dioxide. Plates were transferred into a temperature-controlled (30° C.) incubation box and grown for 3-5 days until colony formation was observed. Colonies were counted and calculated to CFU/g. Boxes with barley were placed into a steeping/germination box. The chamber was filled with town tap water for the first steeping and to remove dust and dirt. With help of Dulcotest DT1 photometer (Prominent), the free chlorine in tap water was determined to be 0.17 ppm. The first steeping was performed for 5 hours at about 14.5° C. During this time the water content in exposed barley increased up to 31.8%. After the first steeping residual water was drained. A second (parallel) barley sample was taken to determine the Fusarium load. The steeped barley was then exposed to air until next morning (approximately 16 hours), and a third (parallel) barley sample was taken to determine Fusarium load.
(§2) The second steeping was performed using an aqueous solution of chlorine dioxide. The aqueous solution was made of Diversey Bi-Spore as described in Example 1. The chlorine dioxide steeping solution was prepared from stock by diluting with town tap water. The chlorine dioxide concentration of the steeping solution was determined to be 12 ppm.
(§3) Four boxes with 0.5 kg barley each were placed into a plastic container, which then was filled with 11 L of above mentioned chlorine dioxide steeping solution. The plastic container was transferred into the steeping/germination chamber and left for another 4 hour steeping period. The chlorine dioxide concentration was periodically monitored using Dr. Lange test-kits (LCK 310/343) and DR 2800 device. (Parallel) Barley samples were taken to determine residual cell load of Fusarium after the chlorine dioxide steeping.
After second steeping with chlorine dioxide, the boxes were exposed to air in the closed chamber for another 20 hour period. The water level was determined to 38.1% and then adjusted to final 45.5% after a third steeping with tap water for a period of 2.5 hours. A final parallel barley sample was taken to determine residual cell load with Fusarium prior to germination. Treated barley then was further processed according to a quality parameter protocol of the Malting Institute.

[3] = Chlorine dioxide concentration in the steeping solution during steeping; type: physicochemical; conditions: for ClO2 concentration in the steeping solution: Example 2, second steeping
Protocol: as §2, §3
(§4) A comparison test with a batch of barley treated with chlorine dioxide in second steeping versus a control using tap water only was carried out following the procedure described in Example 2. The chlorine dioxide in the second steeping solution was determined as initial 11 ppm and dropped to 8 ppm at the end of steeping (4 hour in total, data not shown). The effect on reduction of Fusarium counts were determined.

[4] = system: Fusarium; test: Fusarium counts on barley, chlorine dioxide in second steeping versus tap water blank (Example 3); type: cell-based
Protocol: as §1, §4

[5] = system: Fusarium mycotoxins (deoxynivalenol, zearalenon) and deoxynivalenol-3-glucoside; test: Mycotoxin content of barley by LC-MS/MS
Protocol: The barley was also analyzed for representative mycotoxin content as follows. The high-performance liquid chromatography with mass detection (LC-MS/MS) was used for the determination of the selected Fusarium mycotoxins (deoxynivalenol, zearalenon) and deoxynivalenol-3-glucoside in brewing raw materials. After extraction, the homogenized samples were filtered and purified on the SPE column or immunoaffinity column. Subsequently, they were concentrated using a vacuum evaporator, transferred to aqueous methanol and analyzed with the LC-MS/MS.

[6] = system: Fusarium; test: Industrial-scale treatment of barley with chlorine dioxide (about 10 ppm) in second steeping, Fusarium counts; type: cell-based; conditions: in words
Protocol: Two independent comparison tests with batches of barley treated with chlorine dioxide in a second steeping, versus control steepings using tap water only, were carried out at industrial scale at an industrial malting site following the procedure described in Example 2. Each batch included about 56 m^3 of barley, the ratio of aqueous chlorine dioxide to barley was about 1:1, and chlorine dioxide (about 10 ppm) was added during second steeping. There was no further dosage of ClO2 during the subsequent germination phase. The effect on reduction of Fusarium counts at industrial-scale were determined at distinct phases: after a first air break, after the second steeping, and during the green malt stage (after barley germination).

[7] = system: Fusarium; test: Industrial-scale spraying of barley with aqueous chlorine dioxide (20 ppm) during germination, Fusarium counts; type: cell-based; conditions: for Log N Fusarium counts: sprayed with aqueous ClO2 (20 ppm) during germination, samples 11B, 12B
Protocol: Comparison tests were conducted with two batches of barley at the same industrial malting site of Example 5, to determine the effect of ClO2 upon Fusarium counts where the barley is sprayed with aqueous ClO2 (20 ppm) during germination. Both batches were treated with tap water during the steeping stage. Batches 11A and 12A were also sprayed with tap water during germination, whereas batches 11B and 12B were sprayed with aqueous ClO2 (20 ppm) during germination. Each batch of barley weighed approximately 56 metric tons when dry and absorbed approximately 40-50% water by weight during the steeping and germination steps. For example, the barley typically absorbed about 41-42% water during steeping. During germination water content in the barley further increased to about 45-46%. During germination, the steeped batch of barley was sprayed with about 8.8 m^3 aqueous chlorine dioxide (20 ppm) solution (i.e., about 0.15 m^3 aqueous chlorine dioxide solution per metric ton of dry grain).

[8] = system: Fusarium; test: Fusarium counts on barley, chlorine dioxide in second steeping, pilot steeping chamber (Example 2); type: cell-based; remark: listed apart in the source
[9] = 10 ppm + 1 ppm ClO2, contact time 60 min + 60 min
[10] = 10 ppm + 1 ppm ClO2, contact time 60 min + 300 min
[11] = 10 ppm + 10 ppm (2nd steep) ClO2, contact time 60 min + 60 min
[12] = 10 ppm + 10 ppm (2nd steep) ClO2, contact time 60 min + 300 min
[13] = ClO2-treated batch, after third steeping with tap water
[14] = ClO2-treated batch, after third steeping with tap water, second sample
[15] = after second steeping with ClO2 (4 hours), 12 ppm
[16] = after second steeping with ClO2 (4 hours), 12 ppm, second sample
[17] = second steeping step with chlorine dioxide
[18] = after 2nd steeping with ClO2 (4 hours)
[19] = Bojos barley after steeping with chlorine dioxide

With [O][Cl+][O-] [ClO2, chlorine dioxide] the CFU/g after treatment [1, 9] was 3.3 × 10^6 CFU/g, the “R (log batch control − log batch ClO2), reduction in viability” value [1, 9] was 1.06 and the CFU/g after treatment [1, 10] was 1.3 × 10^7 CFU/g. For the same molecule, the “R (log batch control − log batch ClO2), reduction in viability” value [1, 10] was 0.47, the CFU/g after treatment [1, 11] was 1.1 × 10^4 CFU/g and the “R (log batch control − log batch ClO2), reduction in viability” value [1, 11] was 3.58. For the same molecule, the CFU/g after treatment [1, 12] was 5 × 10^3 CFU/g, the “R (log batch control − log batch ClO2), reduction in viability” value [1, 12] was 3.88 and the “Fusarium counts on barley compared to a control without chlorine dioxide” value ([1]; Example 1, in words) was “clear reduction”. The “Fusarium counts, Mean value (CFU/g)” value [2, 13] was 2.47 × 10^5 CFU/g, the “Fusarium counts, Sample 1 (CFU/g)” value [2, 13] was 2.47 × 10^5 CFU/g and the “Fusarium counts, Sample 1 (CFU/g)” value [2, 14] was 2.47 × 10^5 CFU/g. The “Fusarium counts, Mean value (CFU/g)” value [2, 15] was 5.16 × 10^4 CFU/g, the “Fusarium counts, Sample 1 (CFU/g)” value [2, 15] was 5.23 × 10^4 CFU/g and the “Fusarium counts, Sample 1 (CFU/g)” value [2, 16] was 5.09 × 10^4 CFU/g. For the same molecule, the “Fusarium in malted barley produced from the treated batch” value ([2]; malted barley, data not shown) was “free from Fusarium”, the “Reduction of Fusarium numbers on barley (%)” value [2, 17] was 94.15% and the “Reduction of Fusarium numbers on barley (log)” value [2, 17] was 1.24 log. For the same molecule, the “ClO2 concentration in the steeping solution” value (from here on “ClO2 concentration”) ([3]; time 0 min) was 12.2 mg/L, the “ClO2 concentration” value ([3]; time 80 min) was 11.8 mg/L and the “ClO2 concentration” value ([3]; time 140 min) was 7.4 mg/L. The “ClO2 concentration” value ([3]; time 190 min) was 9.5 mg/L, the “ClO2 concentration” value ([3]; time 240 min) was 6.4 mg/L and the “Chlorine dioxide in the second steeping solution, end of steeping” value ([3]; Example 3, end of steeping (4 hour in total)) was 8 ppm. The “Chlorine dioxide in the second steeping solution, initial” value ([3]; Example 3, start of steeping) was 11 ppm, the “% reduction vs. untreated control” value ([4]; after 2nd aeration (20 hours)) was 93.09% and the “Fusarium counts, treated with ClO2, mean value (CFU/g)” value ([4]; after 2nd aeration (20 hours)) was 4.41 × 10^3 CFU/g. The “Fusarium counts, treated with ClO2, sample 1 (CFU/g)” value ([4]; after 2nd aeration (20 hours)) was 4.69 × 10^3 CFU/g, the “Fusarium counts, treated with ClO2, sample 2 (CFU/g)” value (“Fusarium counts … sample 2 (CFU/g)” for short) ([4]; after 2nd aeration (20 hours)) was 4.13 × 10^3 CFU/g and the “log reduction vs. untreated control” value ([4]; after 2nd aeration (20 hours)) was 1.17. The “% reduction vs. untreated control” value [4, 18] was 93.44%, the “Fusarium counts, treated with ClO2, mean value (CFU/g)” value [4, 18] was 4.56 × 10^3 CFU/g and the “Fusarium counts, treated with ClO2, sample 1 (CFU/g)” value [4, 18] was 4.37 × 10^3 CFU/g. The “Fusarium counts … sample 2 (CFU/g)” value [4, 18] was 4.75 × 10^3 CFU/g, the “log reduction vs. untreated control” value [4, 18] was 1.18 and the “% reduction vs. untreated control” value ([4]; after 3rd steeping) was 92.59%. The “Fusarium counts, treated with ClO2, mean value (CFU/g)” value ([4]; after 3rd steeping) was 3.14 × 10^3 CFU/g, the “Fusarium counts, treated with ClO2, sample 1 (CFU/g)” value ([4]; after 3rd steeping) was 3.12 × 10^3 CFU/g and the “Fusarium counts … sample 2 (CFU/g)” value ([4]; after 3rd steeping) was 3.15 × 10^3 CFU/g. The “log reduction vs. untreated control” value ([4]; after 3rd steeping) was 1.13, the “Fusarium counts compared to the control steeped with tap water only” value ([4]; chlorine dioxide in second steeping, in words) was “significantly lower” and the “DON concentration on barley” value [5, 19] was 450.4 µg/kg. For the same molecule, the “DON_3_Glc concentration on barley” value [5, 19] was 751 µg/kg, the “ZON concentration on barley” value [5, 19] was 12.1 µg/kg and the DON ([5]; Bojos barley steeped with chlorine dioxide, Table 7) was 450.4 µg/kg. For the same molecule, the “Mycotoxin concentration of DON and DON_3_Glc on barley compared to initial load of untreated barley or barley steeped with water only” value ([5]; in words) was “significantly lower”, the “ZON level compared to tap water only” value ([5]; in words) was “significantly less” and the “Level of ZON after steeping compared to initial load” value ([5]; in words, independently of whether water or chlorine dioxide was used) was “increased”. For the same molecule, the “Fusarium counts compared to control batches steeped with tap water” value [6] was “significantly lower”, the “Fusarium counts on barley compared to control batch sprayed with tap water” value ([7]; industrial scale, sprayed during germination, in words) was “significantly lower” and the “Log N Fusarium counts” value ([7]; Day 1) was 5.9 and 5.8. The “Log N Fusarium counts” value ([7]; Day 2) was 5.2, the “Log N Fusarium counts” value ([7]; Day 3) was 5.2 and the “Log N Fusarium counts” value ([7]; Day 4) was 4.3. The “Log N Fusarium counts” value ([7]; Day 5) was 4.1 and 4.0, the “Fusarium counts, Mean value (CFU/grain)” value [8, 13] was 1.98 × 10^4 CFU/grain and the “Fusarium counts, Sample 1 (CFU/grain)” value [8, 13] was 1.90 × 10^4 CFU/grain. For the same molecule, the “Fusarium counts, Sample 1 (CFU/grain)” value [8, 14] was 2.06 × 10^4 CFU/grain, the “Fusarium counts, Mean value (CFU/grain)” value [8, 15] was 3.69 × 10^3 CFU/grain and the “Fusarium counts, Sample 1 (CFU/grain)” value [8, 15] was 3.74 × 10^3 CFU/grain. The “Fusarium counts, Sample 1 (CFU/grain)” value [8, 16] was 3.64 × 10^3 CFU/grain.
